Experimental data from ChEMBL document CHEMBL3885861, “Open TG-GATES”.

Species on record: Rattus norvegicus
Assay: Open TG-GATES - Regimen: Daily Repeat
Assay type: toxicity, organism-based, Sprague-Dawley
Design: regimen Daily Repeat, gender Male, age 6 weeks
Details: in vivo, po, 10 mg/kg, route gavage, dose level Low; for KIDNEY_L / KIDNEY_R / KIDNEY_TOTAL: tissue Kidney; for ALT / AST / CRE / DBIL / GLC / IP / K / LDH / PL / RALB / TBIL / TC / TG / TP / gamma-GTP: tissue Plasma

Compound `CC(C)OC(=O)C(C)(C)Oc1ccc(C(=O)c2ccc(Cl)cc2)cc1` [FENOFIBRATE] has a TERMINAL_BW (72 h, time 3 day) of 221.1 g, a Bas (72 h, tissue Blood, time 3 day) of 0.4% and an Eos (72 h, tissue Blood, time 3 day) of 1.4%. It also gave a Fbg (72 h, tissue Blood, time 3 day) of 269.8 mg/dL, a Ht (72 h, tissue Blood, time 3 day) of 39.2% and an MCHC (72 h, tissue Blood, time 3 day) of 33.1%. It also gave a Mono (72 h, tissue Blood, time 3 day) of 3%, a Plat (72 h, tissue Blood, time 3 day) of 113.1 x10_4/uL and an RBC (72 h, tissue Blood, time 3 day) of 620.2 x10_4/ul. The Ret (72 h, tissue Blood, time 3 day) was 7.2%, the WBC (72 h, tissue Blood, time 3 day) was 80.5 x10_2/uL and the KIDNEY_L (72 h, time 3 day) was 1 g. The KIDNEY_R (72 h, time 3 day) was 1 g, the KIDNEY_TOTAL (72 h, time 3 day) was 2 g and the ALT (72 h, time 3 day) was 49 IU/L. It also gave an AST (72 h, time 3 day) of 76.6 IU/L, a CRE (72 h, time 3 day) of 0.2 mg/dL and a DBIL (72 h, time 3 day) of 0.012 mg/dL. The GLC (72 h, time 3 day) was 182.8 mg/dL, the IP (72 h, time 3 day) was 8.3 mg/dL and the K (72 h, time 3 day) was 4.1 meq/L. It also gave an LDH (72 h, time 3 day) of 74 IU/L, a PL (72 h, time 3 day) of 148.8 mg/dL and an RALB (72 h, time 3 day) of 2.6 g/dL. It also gave a TBIL (72 h, time 3 day) of 0.04 mg/dL, a TC (72 h, time 3 day) of 80.4 mg/dL and a TG (72 h, time 3 day) of 52.4 mg/dL. The TP (72 h, time 3 day) was 5.6 g/dL, the gamma-GTP (72 h, time 3 day) was 1.2 IU/L and the TERMINAL_BW ([…], time 7 day) was 253.9 g. The TERMINAL_BW ([…], time 14 day) was 314.5 g, the TERMINAL_BW ([…], time 28 day) was 385.8 g and the Bas ([…], tissue Blood, time 7 day) was 0.2%. It also gave an Eos ([…], tissue Blood, time 7 day) of 1%, a Fbg ([…], tissue Blood, time 7 day) of 280.8 mg/dL and a Ht ([…], tissue Blood, time 7 day) of 41%. For the same compound, the MCHC ([…], tissue Blood, time 7 day) was 33.1%, the Mono ([…], tissue Blood, time 7 day) was 2.2% and the Plat ([…], tissue Blood, time 7 day) was 136.5 x10_4/uL. It also gave an RBC ([…], tissue Blood, time 7 day) of 646.8 x10_4/ul, a Ret ([…], tissue Blood, time 7 day) of 6.2% and a WBC ([…], tissue Blood, time 7 day) of 99.8 x10_2/uL. For the same compound, the Bas ([…], tissue Blood, time 14 day) was 0%, the Eos ([…], tissue Blood, time 14 day) was 1% and the Fbg ([…], tissue Blood, time 14 day) was 309.6 mg/dL. It also gave a Ht ([…], tissue Blood, time 14 day) of 42.6%, an MCHC ([…], tissue Blood, time 14 day) of 33.5% and a Mono ([…], tissue Blood, time 14 day) of 3%. For the same compound, the Plat ([…], tissue Blood, time 14 day) was 123.9 x10_4/uL, the RBC ([…], tissue Blood, time 14 day) was 687.6 x10_4/ul and the Ret ([…], tissue Blood, time 14 day) was 4.5%. For the same compound, the WBC ([…], tissue Blood, time 14 day) was 88.4 x10_2/uL, the Bas ([…], tissue Blood, time 28 day) was 0% and the Eos ([…], tissue Blood, time 28 day) was 1.2%. For the same compound, the Fbg ([…], tissue Blood, time 28 day) was 267 mg/dL, the Ht ([…], tissue Blood, time 28 day) was 44.6% and the MCHC ([…], tissue Blood, time 28 day) was 33.7%. For the same compound, the MCV ([…], tissue Blood, time 28 day) was 57.9 fL, the Mono ([…], tissue Blood, time 28 day) was 2.4% and the Plat ([…], tissue Blood, time 28 day) was 105.5 x10_4/uL. For the same compound, the RBC ([…], tissue Blood, time 28 day) was 770.4 x10_4/ul, the Ret ([…], tissue Blood, time 28 day) was 2.1% and the WBC ([…], tissue Blood, time 28 day) was 88.4 x10_2/uL. The KIDNEY_L ([…], time 7 day) was 1.1 g, the KIDNEY_R ([…], time 7 day) was 1.1 g and the KIDNEY_TOTAL ([…], time 7 day) was 2.1 g. The KIDNEY_L ([…], time 14 day) was 1.3 g, the KIDNEY_R ([…], time 14 day) was 1.3 g and the KIDNEY_TOTAL ([…], time 14 day) was 2.6 g. The KIDNEY_L ([…], time 28 day) was 1.5 g, the KIDNEY_R ([…], time 28 day) was 1.5 g and the KIDNEY_TOTAL ([…], time 28 day) was 2.9 g. It also gave an ALT ([…], time 7 day) of 45.2 IU/L, an AST ([…], time 7 day) of 72.8 IU/L and a CRE ([…], time 7 day) of 0.2 mg/dL. It also gave a DBIL ([…], time 7 day) of 0.01 mg/dL, a GLC ([…], time 7 day) of 187.2 mg/dL and an IP ([…], time 7 day) of 8.1 mg/dL. The K ([…], time 7 day) was 4.4 meq/L, the LDH ([…], time 7 day) was 101.2 IU/L and the PL ([…], time 7 day) was 131.8 mg/dL. It also gave an RALB ([…], time 7 day) of 2.7 g/dL, a TBIL ([…], time 7 day) of 0.026 mg/dL and a TC ([…], time 7 day) of 65.6 mg/dL. For the same compound, the TG ([…], time 7 day) was 74.2 mg/dL, the TP ([…], time 7 day) was 5.8 g/dL and the gamma-GTP ([…], time 7 day) was 1 IU/L. It also gave an ALT ([…], time 14 day) of 39.8 IU/L, an AST ([…], time 14 day) of 64 IU/L and a CRE ([…], time 14 day) of 0.2 mg/dL. The DBIL ([…], time 14 day) was 0.014 mg/dL, the GLC ([…], time 14 day) was 193.2 mg/dL and the IP ([…], time 14 day) was 7.7 mg/dL. For the same compound, the K ([…], time 14 day) was 4.3 meq/L, the LDH ([…], time 14 day) was 84 IU/L and the PL ([…], time 14 day) was 132.4 mg/dL. It also gave an RALB ([…], time 14 day) of 2.7 g/dL, a TBIL ([…], time 14 day) of 0.03 mg/dL and a TC ([…], time 14 day) of 57.2 mg/dL. It also gave a TG ([…], time 14 day) of 124.8 mg/dL, a TP ([…], time 14 day) of 6 g/dL and a gamma-GTP ([…], time 14 day) of 0.8 IU/L. The ALT ([…], time 28 day) was 40.2 IU/L, the AST ([…], time 28 day) was 63.2 IU/L and the CRE ([…], time 28 day) was 0.2 mg/dL. It also gave a DBIL ([…], time 28 day) of 0.01 mg/dL, a GLC ([…], time 28 day) of 187.6 mg/dL and an IP ([…], time 28 day) of 7.2 mg/dL. For the same compound, the K ([…], time 28 day) was 4.2 meq/L, the LDH ([…], time 28 day) was 101.6 IU/L and the PL ([…], time 28 day) was 136.2 mg/dL. The RALB ([…], time 28 day) was 2.8 g/dL, the TBIL ([…], time 28 day) was 0.028 mg/dL and the TC ([…], time 28 day) was 64.6 mg/dL. For the same compound, the TG ([…], time 28 day) was 100 mg/dL, the TP ([…], time 28 day) was 6.4 g/dL and the gamma-GTP ([…], time 28 day) was 1 IU/L.
